Holding throughout (assay): NCI-60 cell line screen, 48 h
Assay [1] concerns M19-MEL melanoma.
The test system of assay [2] is EKVX NSCLC.
The subject of assay [3] is K-562 leukemia.
Assay [4] concerns MOLT-4 leukemia.
Assay [5] deals with ACHN renal.
In assay [6] the test system is DLD-1 colon.
Assay [7] deals with HOP-18 NSCLC.
For assay [8], the system named is CAKI-1 renal.
Assay [9] deals with SK-MEL-2 melanoma.
Assay [10] has as its system T-47D breast.
The subject of assay [11] is MDA-MB-435.
Assay [12] concerns DU-145 prostate.

The results in this text go back to PubChem BioAssay (NCI).

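Briefly, cells in 96-well plates were exposed to five compound concentrations for 48 h, and endpoints were estimated by linear interpolation. TGI denotes the concentration required for complete inhibition of growth.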

`CN(C)CC(C)(C)C(=O)/C=C/c1ccccc1`: the TGI in assay [1] came out at 32.2 µM; in [2], 38.3 µM; in [3] it was 33.7 µM; in [4] it was 60.4 µM; in assay [5], 33.3 µM; in assay [6], 74.3 µM. Also, the TGI turned out to be 49.8 µM in [7] and 40.3 µM in [8].

With `CC1[C@@H]2C[C@@H]3O[C@@]34[C@H]3CCC5Cc6nc7c(nc6C[C@@]5(C)C3(O)CC(=O)[C@@]24CO[C@]12OC(C)(C)CC2O)CC1CC[C@@H]2C3=C[C@H]4O[C@@]5(O[C@@](C)(CO)C[C@@H]5O)C(C)[C@@]4(O)[C@]3(C)[C@@H](O)CC2[C@]1(C)C7` (stereo not given in full), the TGI in assay [1] is above 3.52 µM; in assay [2], 1.03 µM; in assay [3], 0.666 µM; in assay [9], 0.863 µM; in assay [6], above 3.52 µM; in assay [7], above 3.52 µM. This molecule also registered a TGI in [8] above 3.52 µM.

Regarding `C[S+](C)C1(c2ccccc2)C(=O)c2ccccc2C1=O`, the TGI in assay [10] was 92.1 µM; in [1], above 100 µM; in assay [2] it was 76.9 µM; in assay [3], above 100 µM; in assay [4], above 100 µM; in assay [9] it was above 73.2 µM. In addition, the TGI in [5], in assay [6], in assay [11], in [7], in assay [8] and in assay [12] was above 100 µM throughout.

With `CN(C)CCSc1nccc(-c2ccc(-c3ccnc(SCCN(C)C)n3)s2)n1`, the TGI in assay [1] was 26.6 µM; in assay [2] it was 37.4 µM; in [3] it was 23.2 µM; in [4], 10 µM; in [9], 29.5 µM; in [6], 23 µM. Also, the results for the TGI in [7] and in assay [8] were 67.2 µM and 33.1 µM, respectively.

For the molecule `COc1cc(C)c(S(=O)(=O)N(CCCN)OCCCN)c(C)c1C`, the TGI is above 100 µM in assay [10]; above 100 µM in assay [2]; 31.7 µM in assay [3]; 31.4 µM in assay [4]; 51.5 µM in assay [9]; above 100 µM in assay [5]. The TGI in assay [11], in [8] and in assay [12] was above 100 µM each time.

Take `COC1OC(=O)C(OC)C(OC)C1OC` (stereo not given): the TGI in [10], in assay [2], in assay [3], in [4], in [9] and in [5] was above 100 µM in each case. Also, the TGI in [11], in [8] and in assay [12] was above 100 µM each time.

On to `CC(=O)OCC12C(OC(C)=O)C[C@@H](C)C3(CC(c4ccoc4)OC3=O)C1CCC(OC(C)=O)C21CO1` (stereo not given in full), for which the TGI in assay [10], in assay [2], in assay [3], in assay [4], in [9] and in assay [5] was above 100 µM in each case. Also, the TGI in assay [11], in assay [8] and in [12] was above 100 µM in each case.

Regarding `CCOC(=O)CCN1C(=O)c2c(NC(=O)C(=O)O)cccc2S1(=O)=O`, the TGI in assay [10], in assay [2], in assay [3], in assay [4], in assay [9] and in assay [5] was above 100 µM each time. For the same molecule, the TGI in assay [11], in [8] and in assay [12] was above 100 µM throughout.

On to `Cc1cnc2cc(Cl)ccc2c1SCC(=O)O`, for which the TGI in assay [10], in assay [2], in [3], in assay [4], in assay [9] and in [5] was above 100 µM each time. In addition, the TGI in [11], in assay [8] and in assay [12] was above 100 µM in each case.

Consider `CCOC(=O)C1=C(C)N(c2ccc(Cl)cc2)C2(O)C=CC(=O)C3C(=O)N(c4ccccc4)C(=O)C132` (stereo not given), for which the TGI in assay [10] amounted to 6.55 µM; in assay [2], 4.38 µM; in assay [3] it was 9.03 µM; in [4] it was 3.72 µM; in assay [9], 3.53 µM; in assay [5] it was 3.07 µM. The TGI in [11] came out at 6.83 µM; in [8] it was 4.72 µM; in assay [12], 4.65 µM.

Take `O=C1CCc2c(sc3ncnc(Nc4cccc(Br)c4)c23)C1`: the TGI is 6.17 µM in assay [10]; 12.4 µM in assay [2]; above 22.7 µM in [3]; above 27 µM in [4]; 23.8 µM in assay [9]; 8.04 µM in assay [5]. Further, the TGI in assay [11] was found to be 3.82 µM; in assay [8], 12.5 µM; in [12] it was 17.3 µM.

On to `N#Cc1c(NC(=S)Nc2ccccc2)sc2c1CCCC2`, for which the TGI in [10], in [2], in assay [3], in [4], in [9] and in assay [5] was above 100 µM throughout. The TGI in assay [11], in assay [8] and in assay [12] was above 100 µM in each case.

For the molecule `CCOC(=O)c1sc2[n+](c1C)C(=O)/C(=C/c1ccccc1Cl)S2`, the TGI in assay [10] was 55.1 µM; in assay [2] it was above 100 µM; in assay [3] it was 24.2 µM; in [4] it was 15 µM; in [9], above 74.7 µM; in assay [5], 40 µM. The figures for the TGI in [11], in assay [8] and in [12] were above 100 µM, 24.5 µM and above 35.6 µM, respectively.

On to `CC(=O)N1C(=O)/C(=C\C(=O)c2ccc(Cl)cc2)c2ccccc21`, for which the TGI was 47.6 µM in assay [10]; 36.2 µM in assay [2]; above 100 µM in assay [3]; 9.09 µM in [4]; 38.9 µM in assay [9]; 23.6 µM in assay [5]. Besides, the TGI came out at 36.5 µM in assay [11], 27.6 µM in [8] and 33.7 µM in [12].

For `O=C(c1cccs1)N(C(=O)N1CCCCC1)c1ccccc1`, the TGI in assay [10], in [2], in [3], in assay [4], in [9] and in assay [5] was above 100 µM throughout. Moreover, the TGI in [11], in assay [8] and in [12] was above 100 µM each time.

With `Cc1cccc2c1C(=O)/C(=C/c1ccccc1C(=O)O)C2`, the TGI in [10], in assay [2], in [3], in assay [4], in [9] and in [5] was above 100 µM in each case. Also, the TGI in assay [11], in assay [8] and in assay [12] was above 100 µM in each case.

As for `N#Cc1nc(-c2ccccn2)c(-c2ccccn2)nc1C#N`, the TGI is 9.5 µM in [10]; 15.7 µM in [2]; 19.4 µM in assay [3]; above 30.6 µM in [4]; 10.6 µM in assay [9]; 7.95 µM in [5]. Moreover, the TGI was 22.4 µM in assay [11], 6.81 µM in assay [8] and 12.7 µM in [12].

For the molecule `O=C1CSC2=NC3=C(COC/C3=C\c3ccc(F)cc3)C(c3ccc(F)cc3)N12` (stereo not given), the TGI in [10], in assay [2], in [3], in assay [4], in assay [9] and in [5] was above 100 µM throughout. Moreover, the TGI in [11], in [8] and in assay [12] was above 100 µM in each case.

On to `COc1nc2ncc([C@@H](O)[C@H](O)CO)nc2c(=O)[nH]1`, for which the TGI in assay [10], in [2], in assay [3], in assay [4], in assay [9] and in assay [5] was above 100 µM each time. For the same molecule, the TGI in assay [11], in assay [8] and in [12] was above 100 µM each time.
